EC50 data for five compounds are collected here from patent publication US20140113093A1, “Polymers with reduced estrogenic activity” (SOLVAY SPECIALITY POLYMERS USA, LLC, priority 2011, published 2014).

The term EC50 denotes the midpoint of the concentration-response curve.

Each structure is given as a SMILES string.

The target of this assay is T1, Estrogen receptor α (ERα) (Homo sapiens, UniProt P03372).
T1 construct: host or cells: ER-α-UAS-bla GripTite 293 cells
T1 sequence (P03372 311-547 limits assumed): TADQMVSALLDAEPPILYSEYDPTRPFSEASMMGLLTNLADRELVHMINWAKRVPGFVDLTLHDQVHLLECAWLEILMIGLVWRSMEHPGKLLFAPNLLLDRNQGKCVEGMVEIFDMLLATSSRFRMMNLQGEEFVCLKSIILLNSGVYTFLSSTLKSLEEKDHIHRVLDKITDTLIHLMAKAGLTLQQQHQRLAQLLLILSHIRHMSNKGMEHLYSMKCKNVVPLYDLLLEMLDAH
Description: GeneBLAzer Cell-Based Nuclear Receptor Assay (beta-lactamase reporter), EC50 response value to ERα. The note with it: ER-α-UAS-bla GripTite 293 cells, agonist mode, 16-24 hours at 37° C., monomers tested at 7 to 250000 nM. How it is done:
The plate is incubated for 16-24 hours at 37° C./5% CO2 in a humidified incubator. […] The plate is read on a fluorescence plate reader.
The following equations are used for each set of data points: […]
Take `CC(C)(c1ccc(O)cc1)c1ccc(C(C)(C)c2ccc(O)cc2)cc1` [BisP, α,α′-Bis(4-hydroxyphenyl)-1,4-diisopropylbenzene, reference compound]: the concentration giving a half-maximal response (EC50) is > 25 µM. `O=S(=O)(c1ccc(O)cc1)c1ccc(O)cc1` [Bisphenol S, 4,4′-dihydroxy-diphenylsulfone, reference compound]: a half-maximal response (EC50) required 4.14 µM.

For `O=S(=O)(c1ccc(O)cc1)c1ccc(-c2ccc(S(=O)(=O)c3ccc(O)cc3)cc2)cc1` [Example 1 (HPS), Hydroxysulfonebiphenyl], the EC50 was > 79.1 µM. With `O=S(=O)(c1ccc(Oc2ccc(O)cc2)cc1)c1ccc(Oc2ccc(O)cc2)cc1` [Example 3 (HBS), Bis-4-hydroxyphenoxydiphenylsulfone], the EC50 is > 79.1 µM.

Regarding `O=P(c1ccccc1)(c1ccc(Oc2ccc(O)cc2)cc1)c1ccc(Oc2ccc(O)cc2)cc1` [Example 5 (HPPPO), Bis-4-hydroxyphenoxyphenylphosphine oxide], the concentration for a half-maximal effect (EC50) was > 250 µM.
